Laboratory results reported in patent US8420621B2, “Methods of using gamma cyclodextrin to control blood glucose and insulin secretion” (Abbott Laboratories, priority 2004, dated 2013).

How the values were obtained:
healthy adult subjects [1] = assay: Clinical study: postprandial serum insulin response (ELISA); format: in vivo, human
From the text: Thirty-two healthy adult subjects received two treatments in a double-masked, randomized, crossover design. The two treatments consisted of 50 g challenges of either maltodextrin or gamma-cyclodextrin. Blood samples were collected over a three-hour period, and breath samples collected over an eight-hour period following consumption of each carbohydrate. […] This study utilized a randomized, double-masked, crossover design, with a 4-14 day washout period between treatments. Before completing the two treatment visits, each subject completed one pre-study gastrointestinal tolerance test visit. Randomization was carried out by sealed envelopes stating which pre-study treatment was to be received, as well as in which sequence the two treatment visits were to be carried out. These envelopes were prepared from randomization schedules generated at Ross Products Division of Abbott Laboratories, Two product coordinators assigned an envelope from the top of the pile to each subject in the order that they passed all screening criteria and were given subject numbers. Besides carrying out randomization, the product coordinators were responsible for study product inventory and serving the appropriate product to subjects at each visit so that other study staff could not become aware of the study product identity. […] At each of the two treatment visits, subjects received 16 fl oz of a study product containing either 50 g of maltodextrin or 50 g of gamma-cyclodextrin. All beverages were served cold in styrofoam cups with lids and straws, labeled only with the subject number, subject initials and visit number, with the intention of hiding any slight differences in appearance that could be visible to study staff or subjects. […] A breath sample was collected for measurement of breath hydrogen. […] After consumption of the study beverage, the subject resumed fasting. Time 0 was designated as the time at which the subject began drinking the study beverage. […] Subjects were limited to the consumption of 8 fl oz of water during this three hour blood collection period. Approximately 10 mL of normal saline was injected into the vein after each blood draw in order to keep the line open and to replace the fluid lost from the blood collected. Insulin was analyzed using DSL-10-1600 Insulin ELISA Kits (Diagnostic Systems Laboratories, mc, Webster, Tex.). […] An acidic stopping solution is then added and the enzymatic turnover of TMB is determined by dual wavelength absorbance measurement at 450 and 620 nanometers. […] is proportional to the concentration of insulin present. […]

healthy adult subjects [2] = assay: Clinical study: breath hydrogen test for carbohydrate malabsorption; format: in vivo, human; details: 3 hours after 50 g oral; p=0.01
Method: Upon completion of baseline samples, the subject proceeded to the study site and consumed 16 fl oz of one of the two test beverages in no more than 10 minutes. After consumption of the study beverage, the subject resumed fasting. Time 0 was designated as the time at which the subject began drinking the study beverage. Additional venous blood samples and capillary plasma glucose finger sticks were collected at 15, 30, 45, 60, 90, 120, 150, and 180 […] minutes after the start of the study beverage. Additional breath samples were collected at 1, 2, 3, 4, 5, 6, 7, and 8 (±10 minutes) hours postprandially. Subjects were limited to the consumption of 8 fl oz of water during this three hour blood collection period. Approximately 10 mL of normal saline was injected into the vein after each blood draw in order to keep the line open and to replace the fluid lost from the blood collected.
After the 180-minute blood and breath samples were collected, the subject was allowed to leave the study site and collect the remaining breath samples (hours 4-8) on their own. During the remainder of the breath collection period, the subject was instructed to refrain from sleep and exercise. Subjects were to remain fasting with the exception of an optional one or two 8 fl oz cans of Ensure® Plus. […]
Breath hydrogen was analyzed to determine if the carbohydrate in the study product had been malabsorbed. […]

Breath hydrogen compared to maltodextrin (healthy adult subjects [2]): significantly higher
SMILES: OC[C@H]1O[C@@H]2O[C@H]3[C@H](O)[C@@H](O)[C@@H](O[C@H]4[C@H](O)[C@@H](O)[C@@H](O[C@H]5[C@H](O)[C@@H](O)[C@@H](O[C@H]6[C@H](O)[C@@H](O)[C@@H](O[C@H]7[C@H](O)[C@@H](O)[C@@H](O[C@H]8[C@H](O)[C@@H](O)[C@@H](O[C@H]9[C@H](O)[C@@H](O)[C@@H](O[C@H]1[C@H](O)[C@H]2O)O[C@@H]9CO)O[C@@H]8CO)O[C@@H]7CO)O[C@@H]6CO)O[C@@H]5CO)O[C@@H]4CO)O[C@@H]3CO [Gamma-Cyclodextrin, Gamma-cyclodextrin]
Serum insulin area under the curve (AUC), effect versus maltodextrin (healthy adult subjects [1]; 50 g oral challenge): significantly reduced | Positive incremental 120 min serum insulin AUC (healthy adult subjects [1]; 50 g oral, mean±SEM, n=27 maltodextrin, n=31 gamma-cyclodextrin): 993.4±131.6 | Adjusted peak insulin value compared with maltodextrin (healthy adult subjects [1]; 50 g oral, p=0.0003): significantly decreased | Relative insulinemic response compared to maltodextrin (healthy adult subjects [1]; baseline to 120 min, 50 g oral): 51%
